Experimental data: patent publication US6506876B1, “LTA4 hydrolase inhibitor pharmaceutical compositions and methods of use” (G.D. Searle & Co., priority 1994, dated 2003)
pIC50: −log10 of the molar value. Counter-ions that a name gives are not always drawn. Like-named read-outs stand apart in the source and are kept apart here.

Experiments:
[1] = biological target: T1, recombinant human LTA4 hydrolase (rhLTA4H) (Homo sapiens, UniProt P09960); test: Recombinant human LTA4 hydrolase assay for LTA4 hydrolase inhibitor activity; conditions: Recombinant Human LTA4 Hydrolase Assay IC50 LTA4H, recombinant hLTA4H
T1 sequence (P09960 1-611): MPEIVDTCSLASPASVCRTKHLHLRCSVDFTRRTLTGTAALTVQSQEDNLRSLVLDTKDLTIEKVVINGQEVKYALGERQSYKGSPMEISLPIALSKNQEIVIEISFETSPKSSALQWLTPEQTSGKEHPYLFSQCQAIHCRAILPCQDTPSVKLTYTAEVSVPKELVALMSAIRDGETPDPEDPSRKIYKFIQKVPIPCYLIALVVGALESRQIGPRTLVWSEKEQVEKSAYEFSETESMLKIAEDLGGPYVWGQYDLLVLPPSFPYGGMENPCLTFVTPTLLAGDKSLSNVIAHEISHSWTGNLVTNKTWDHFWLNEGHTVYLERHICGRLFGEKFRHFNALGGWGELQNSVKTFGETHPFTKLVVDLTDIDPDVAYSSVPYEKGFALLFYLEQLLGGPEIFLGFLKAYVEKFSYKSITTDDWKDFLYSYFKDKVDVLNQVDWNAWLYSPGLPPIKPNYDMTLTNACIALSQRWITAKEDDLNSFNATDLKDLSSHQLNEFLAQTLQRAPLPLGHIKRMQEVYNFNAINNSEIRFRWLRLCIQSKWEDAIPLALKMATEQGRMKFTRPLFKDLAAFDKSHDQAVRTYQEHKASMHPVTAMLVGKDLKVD
Method: One or more predetermined amounts of a compound of the invention were incubated in assay buffer (0.1 M potassium phosphate, 5 mg/ml fatty acid free BSA, 10% DMSO, pH 7.4) for 10 minutes at room temperature with 250 ng of recombinant hLTA4H to allow binding, if any, between the enzyme and inhibitor. The stock enzyme solution was 1 mg/ml LTA4 hydrolase, 50 mM Tris, pH 8.0, 150 mM NaCl, 2.5 mM beta-mercaptoethanol, 50% glycerol. […] Each reaction was carried out at room temperature for 10 minutes. The reaction was stopped by diluting 25 μl of the reaction mixture with 500 μl of the assay buffer without DMSO. LTB4 was quantified in the diluted sample by a commercially available enzyme-linked immunoassay [Caymen Chemical Co., Ann Arbor, Mich.] using the method recommended in the manufacturer's instructions and compared to the amount of LTB4 produced in a negative control (i.e., essentially identical conditions except without addition of an inhibitor compound). The IC50 was routinely calculated from the data produced.

[2] = tested on: LTB4 production in human whole blood (LTA4 hydrolase); test: LTB4 production by calcium ionophore stimulated human blood; type: cell-based; conditions: read-out: Inhibition of Calcium Ionophore-Induced LTB4 Production in Human Blood IC50 HWB
Method: LTB4 and Thromboxane Production by Calcium Ionophore Stimulated Human Blood for LTA4 Hydrolase Inhibitor Activity
One or more concentrations of the leukotriene A4 hydrolase inhibitor compounds being tested were prepared (diluted in DMSO) and 2 μl added and gently mixed with the diluted whole blood. After incubating for 15 minutes at 37° C. in a humidified incubator, calcium ionophore A23187 (Sigma Chemical Co., St. Louis, Mo.) was added to a final concentration of 20 mcg/ml and the incubation continued under the same conditions for an additional 10 minutes to allow LTB4 formation. The reaction was terminated by centrifugation (833 g, 10 minutes at 4° C.) and supernatant were analyzed for LTB4 and thromboxane by commercially available enzyme-linked immunoassays (Caymen Chemical Co., Ann Arbor, Mich.) according to the manufacturer's instructions. The IC50 of each test compound was determined from the amount of inhibition of LTB4 production as compared to an essentially identical assay in which no inhibitor compound was present.

[3] = tested on: LTB4 production in mouse blood (LTA4 hydrolase); test: Ex vivo LTB4 production by calcium ionophore stimulated mouse blood after oral dosing; type: in vivo
Summary of the method: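 Male outbred mice dosed by oral gavage, 10 mg/kg (some at 50 mg/kg) in PBS with 2% DMSO and 1% Tween 80; heparinised blood taken at 60 min, calcium ionophore-stimulated 10 minutes at 37° C. LTB4 and thromboxane by ELISA; % inhibition against vehicle-dosed animals.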

LTA4 hydrolase = biological target: T2, LTA4 hydrolase (Homo sapiens, UniProt P09960); conditions: background statement; cited from earlier work
T2 sequence (P09960 1-611): T1 sequence (P09960 1-611)

[4] = Homo sapiens, human whole blood, A23187
[5] = mouse, oral gavage, 1 hour after administration of 10 mg/kg; read-out: Murine Ex Vivo LTB4 Inhibition % I LTB4
[6] = Mus musculus, po, 1 h, read-out: Murine Ex Vivo LTB4 Inhibition % I LTB4
[7] = Mus musculus, po, 1 h; read-out: Murine Ex Vivo LTB4 Inhibition % I LTB4

| Compound | pIC50 [1] | pIC50 [2, 4] | inhibition in vivo at 10 mg/kg [3, 5] [%] | melting point [°C] | other results |
| --- | --- | --- | --- | --- | --- |
| NCCOc1ccc(Cc2ccccc2)cc1 [Example 496] | 8.00 | 6.55 | 54 | – | – |
| c1ccc(Cc2ccc(OCCN3CCCCCCC3)cc2)cc1 [Example 398] | 6.66 | 6.33 | 0 | – | – |
| O=C(O)CCNCCCCOc1ccc(Cc2ccccc2)cc1 [Example 433] | – | – | 71 | 140 to 141 | – |
| CN(CCCOc1ccc(Cc2ccccc2)cc1)CCC(=O)O [Example 434] | – | – | – | 113 to 116 | inhibition in vivo at 10 mg/kg [3, 6]: 100% |
| CCOC(=O)C1CCN(CCOc2ccc(Cc3ccccc3)cc2)CC1 [Example 245] | 5.75 | – | – | – | pIC50 ([2]; Homo sapiens): 6.83; inhibition in vivo at 10 mg/kg [3, 6]: 97% |
| CCOC(=O)CCNCCCOc1ccc(Cc2ccccc2)cc1 [Example 265] | 7.11 | 6.35 | 54 | – | – |
| CC(C)C[C@H](NC(=O)[C@@H](O)[C@H](N)Cc1ccccc1)C(=O)O [bestatin] | – | – | – | – | LTA4 hydrolase inhibitory activity (LTA4 hydrolase): exhibit LTA4 hydrolase inhibitory activity |
| c1ccc(Cc2ccc(OCCn3cnc4cnccc43)cc2)cc1 [340 B] | 6.92 | 6.48 | 64 | – | – |
| Cl.c1ccc(Cc2ccc(SCCN3CCCC3)cc2)cc1 [Example 68, 1-[2-[4-(phenylmethyl)phenylthio]ethyl]pyrrolidine, monohydrochloride] | – | – | – | 137 to 139 | – |
| c1ccc(Cc2ccc3c(c2)CC(Cn2ccc4ncnc-4c2)O3)cc1 (centres unmarked) [358 C] | 7.06 | – | – | – | pIC50 ([2]; human whole blood, A23187): 6.23; inhibition in vivo at 10 mg/kg [3, 7]: 13% |
| NC(=O)NC1CCN(CCOc2ccc(Cc3ccccc3)cc2)C1 (centres unmarked) [Example 453] | – | 6.46 | 92 | 132 to 134 | – |
| OCCOc1ccc(Oc2ccc(F)cc2)cc1 [Example 161] | – | – | – | 78 to 79 | – |
| Oc1ccc(OCCN2CCCC2)cc1 [Example 199] | – | – | – | 113 to 115 | – |
| C[C@H](CS)C(=O)N1CCC[C@H]1C(=O)O [captopril] | – | – | – | – | LTA4 hydrolase inhibitory activity (LTA4 hydrolase): exhibit LTA4 hydrolase inhibitory activity |
| c1ccc(Oc2ccc(OCCCn3cnc4cnccc43)cc2)cc1 [351 B] | 6.54 | 5.68 | 71 | – | – |
| NC(=O)C1CCN(CC2Cc3cc(Cc4ccccc4)ccc3O2)CC1 (centres unmarked) [Example 281] | 7.03 | 6.77 | 83 | – | – |

| Compound | pIC50 [1] | pIC50 [2, 4] | inhibition in vivo at 10 mg/kg [3, 5] [%] | melting point [°C] | other results |
| --- | --- | --- | --- | --- | --- |
| O=C(O)CCNCCCOc1ccc(Cc2ccccc2)cc1 [Example 431] | – | 6.55 | 71 | 165 to 167 | – |
| CC(=O)NC1CCN(CCOc2ccc(Cc3ccccc3)cc2)C1 (centres unmarked) [Example 227] | – | – | – | – | pIC50 ([2]; human whole blood, A23187): 6.38; Murine Ex Vivo LTB4 Inhibition % I LTB4 ([3]; mouse, oral gavage, 1 hour after administration of 10 mg/kg): 23% |
| COC(=O)CCN(C)CCCOc1ccc(Cc2cccs2)cc1 [Example 331] | – | 7.02 | 97 | – | – |
| c1ccc(Oc2ccc(NCCN3CCCC3)cc2)cc1 (as salt: HCl) [Example 71, N-(4-phenoxyphenyl)-1-pyrrolidine ethanamine, monohydrochloride] | – | – | – | 202 to 202.5 | – |
| COC(=O)CCNCCOc1ccc(Cc2ccccc2)cc1 [Example 324] | – | 6.23 | 62 | – | – |
| c1ccc(Cc2ccc3c(c2)CC(Cn2cnc4cnccc42)O3)cc1 (centres unmarked) [358 B] | 6.39 | – | – | – | pIC50 ([2]; human whole blood, A23187): 6.19; inhibition in vivo at 10 mg/kg [3, 7]: 33% |
| CCOC(=O)CCNCCCCOc1ccc(Cc2ccccc2)cc1 [Example 272] | – | 7.12 | 97 | – | – |
| c1ccc(Cc2ccc(OCCN3CCCC3)cc2)cc1 [Example 45, 1-[2-(4-phenylmethyl)phenoxyethyl]pyrrolidine] | – | – | – | – | pIC50 ([2]; human whole blood, A23187): 6.94; inhibition in vivo at 10 mg/kg [3, 7]: 35% |
| NC(=O)C1CCN(CCOc2ccc(Cc3ccccc3)cc2)C1 (centres unmarked) [Example 425] | – | 6.44 | 60 | – | – |
| CC(=O)NC1CCN(CCOc2ccc(Cc3ccccc3)cc2)CC1 [Example 238] | – | 6.74 | 49 | – | – |
| C1=CC2CC1CN2CCOc1ccc(Cc2ccccc2)cc1 (centres unmarked) [Example 497] | 6.70 | – | 45 | 37 to 38 | – |
| [O-][S+](CCN1CCCC1)c1ccc(Cc2ccccc2)cc1 (centres unmarked) [Example 69, 1-[2-[4-(phenylmethyl)phenylsulfinyl]ethyl]pyrrolidine, monohydrochloride] | 5.19 | – | – | – | pIC50 ([2]; Homo sapiens): 4.93; inhibition in vivo at 10 mg/kg [3, 6]: 13% |
| O=C(O)[C@@H]1CCCN1CCCOc1ccc(Cc2ccccc2)cc1 [Example 430] | 6.96 | – | 37 | 165 to 169 | – |
| COC(=O)C1CC2CCC(C1)N2CC1Cc2cc(Cc3ccccc3)ccc2O1 (centres unmarked) [Example 283] | 7.72 | – | – | – | pIC50 ([2]; Homo sapiens): 7.05; inhibition in vivo at 10 mg/kg [3, 6]: 90% |
| COc1ccc(Cc2ccc(OCCN3CCCC3)cc2)cc1 [Example 128] | – | 6.05 | 74 | – | – |
